In brackets after ≈: the same amount, converted by molar mass.
assay: Compound solubility in water; type: physicochemical

Compound	solubility
CCCCCCOC1CCC(NC(=O)c2cnc3cc(C)c(Cl)nn23)CC1 (stereo not shown)	16.8 µg/mL (≈ 42.8 µM)
Cc1cc2ncc(C(=O)Nc3ccc4c(c3)CCC4)n2nc1Cl	1.5 µg/mL (≈ 4.59 µM)
CCCCCCOC1CCC(NC(=O)c2cnc3c(C)cc(Cl)nn23)CC1 (stereo not shown)	3.1 µg/mL (≈ 7.89 µM)
Cc1cc(-c2ccc3ocnc3c2)nn2c(C(=O)NC(C)C3CC3)cnc12 (stereo not shown)	1.4 µg/mL (≈ 3.87 µM)
Cc1cc(C)c2ncc(C(=O)NC3(C)CCCc4ccccc43)n2n1 (stereo not shown)	7.2 µg/mL (≈ 21.5 µM)
Cc1cc(-c2cccc(C(N)=O)c2)nc2c(C(=O)NC(C3CC3)C(F)(F)F)csc12 (stereo not shown)	0.4 µg/mL (≈ 0.923 µM)
Cc1cc(-c2occc2C#N)nn2c(C(=O)NC(C3CC3)C(F)(F)F)cnc12 (stereo not shown)	0.7 µg/mL (≈ 1.8 µM)
COc1cccc(-c2cc(C)c3ncc(C(=O)NC(C4CC4)C4CC4)n3n2)c1	2.7 µg/mL (≈ 7.17 µM)
CCC(NC(=O)c1cnc2c(C)cc(C)nn12)c1ccccc1 (stereo not shown)	18.8 µg/mL (≈ 61 µM)
C#Cc1ccc(NC(=O)c2cnc3c(C)cc(C)nn23)cc1	0.3 µg/mL (≈ 1.03 µM)
Cc1cc(N2CCN(C(C)C)C2=O)nn2c(C(=O)NC(C3CC3)C(F)(F)F)cnc12 (stereo not shown)	18.3 µg/mL (≈ 43.1 µM)
Cc1cc(C)c2ncc(C(=O)NC3CCCc4ccccc43)n2n1 (stereo not shown)	8.8 µg/mL (≈ 27.5 µM)
O=C(NC1CCCc2ccccc21)c1cnc2ccc(Cl)nn12 (stereo not shown)	17.5 µg/mL (≈ 53.7 µM)
Cc1cc(N2CCCC(F)(F)C2)nn2c(C(=O)N[C@@H](C3CC3)C(F)(F)F)cnc12	1.9 µg/mL (≈ 4.55 µM)
CCC(NC(=O)c1cnc2cc(C)c(Cl)nn12)c1ccccc1 (stereo not shown)	14.6 µg/mL (≈ 44.5 µM)
Cc1cc(C)c2scc(C(=O)NC(C3CC3)C(F)(F)F)c2n1 (stereo not shown)	0.1 µg/mL (≈ 0.305 µM)
Cc1cc(C)c2ncc(C(=O)Nc3ccc4c(c3)CCC4)n2n1	0.9 µg/mL (≈ 2.94 µM)
O=C(Nc1ccc2c(c1)CCC2)c1cnc2ccc(Cl)nn12	0.7 µg/mL (≈ 2.24 µM)
CCC(NC(=O)c1cnc2ccc(Cl)nn12)c1ccccc1 (stereo not shown)	15.4 µg/mL (≈ 49.1 µM)
Cc1cc(-c2cccnc2)nc2c(C(=O)NC(C)C3CC3)csc12 (stereo not shown)	1.4 µg/mL (≈ 4.15 µM)

Compound	solubility
Cc1cc(Cl)nn2c(C(=O)Nc3ccc4c(c3)CCC4)cnc12	0.3 µg/mL (≈ 0.918 µM)
Cc1cc2ncc(C(=O)NC3CCCc4ccccc43)n2nc1Cl (stereo not shown)	3.6 µg/mL (≈ 10.6 µM)
Cc1cc(-c2cccc(C(N)=O)c2)nc2c(C(=O)NC(C3CC3)C(F)(F)F)nsc12 (stereo not shown)	1.4 µg/mL (≈ 3.22 µM)
Cc1cc(-c2cccc(F)c2C#N)nn2c(C(=O)N[C@@H](C)C3CC3)cnc12 [(S)-6-(2-Cyano-3-fluorophenyl)-N-(1-cyclopropylethyl)-8-methylimidazo[1,2-b]pyridazine-3-carboxamide]	0.5 µg/mL (≈ 1.38 µM)
Cc1cc(C)c2ncc(C(=O)NC(C)(C)C3CC3)n2n1	27.3 µg/mL (≈ 100 µM)
CCCCCO[C@H]1CC[C@H](NC(=O)c2cnc3ccc(Cl)nn23)CC1	17 µg/mL (≈ 46.6 µM)
Cc1cc(-c2ccccn2)nc2c(C(=O)NC(C3CC3)C(F)(F)F)nsc12 (stereo not shown)	0.7 µg/mL (≈ 1.78 µM)
C#Cc1ccc(NC(=O)c2cnc3ccc(Cl)nn23)cc1	15 µg/mL (≈ 50.6 µM)
Cc1cc(C)c2ncc(C(=O)Nc3ccc(-c4cocn4)cc3)n2n1	1.8 µg/mL (≈ 5.4 µM)
CCCCCO[C@H]1CC[C@H](NC(=O)c2cnc3c(C)cc(C)nn23)CC1	3.9 µg/mL (≈ 10.9 µM)
Cc1cc(N2CCC(F)(F)C2)nn2c(C(=O)NC(C3CC3)C(F)(F)F)cnc12 (stereo not shown)	8.2 µg/mL (≈ 20.3 µM)
Cc1cc(-c2cccnc2)nc2c(C(=O)NC(C3CC3)C(F)(F)F)nsc12 (stereo not shown)	0.3 µg/mL (≈ 0.765 µM)
Cc1cc(-c2cccnc2)nc2c(C(=O)NC(C3CC3)C(F)(F)F)csc12 (stereo not shown)	0.5 µg/mL (≈ 1.28 µM)
Cc1cc(C)c2cnc(C(=O)NC(C)(C)C3CC3)n2n1	24 µg/mL (≈ 88.1 µM)
Cc1cc(-c2ccns2)nn2c(C(=O)NC(C3CC3)C(F)(F)F)cnc12 (stereo not shown)	0.5 µg/mL (≈ 1.31 µM)
Cc1cc(-c2ccc(F)cc2C#N)nn2c(C(=O)N[C@@H](C)C3CC3)cnc12	2.6 µg/mL (≈ 7.15 µM)
Cc1cc(-c2ccns2)nn2c(C(=O)NC(C)(C)C3CC3)cnc12	6.7 µg/mL (≈ 19.6 µM)
Cc1cc(-c2cccc3ocnc23)nc2c(C(=O)NC(C3CC3)C(F)(F)F)nsc12 (stereo not shown)	1.1 µg/mL (≈ 2.54 µM)
Cc1cc(-c2ccc(F)cc2C#N)nn2c(C(=O)N[C@H](C)C3CC3)cnc12	2.3 µg/mL (≈ 6.33 µM)
C#CC(C)(C)NC(=O)c1cnc2c(C)cc(-c3ccns3)nn12	17.2 µg/mL (≈ 52.9 µM)

Results, then the molecule that gave them:

solubility	Compound
8 µg/mL (≈ 22.7 µM)	Cc1cc(-c2cccc(F)c2)nn2c(C(=O)NC(C)(C)C3CC3)ncc12
3.5 µg/mL (≈ 9.12 µM)	Cc1cc(-c2cccc(Cl)n2)nn2c(C(=O)NC(C)C(F)(F)F)cnc12 (stereo not shown)
1 µg/mL (≈ 2.57 µM)	Cc1cc(-c2ccc3ocnc3c2)nn2c(C(=O)N[C@H](C)C(F)(F)F)cnc12
3.9 µg/mL (≈ 9.97 µM)	Cc1cc(-c2ccc(F)cc2C#N)nn2c(C(=O)NC(C)C(F)(F)F)cnc12 (stereo not shown)
2.1 µg/mL (≈ 6.85 µM)	Cc1cc(C)c2cnc(C(=O)Nc3ccc4c(c3)CCC4)n2n1
0.7 µg/mL (≈ 1.68 µM)	Cc1cc(-c2ccc(F)cc2C#N)nn2c(C(=O)NC(C3CC3)C(F)(F)F)cnc12 (stereo not shown)
1.5 µg/mL (≈ 3.72 µM)	Cc1nc2cc(-c3cc(C)c4ncc(C(=O)NC(C)C(F)(F)F)n4n3)ccc2o1 (stereo not shown)
1.3 µg/mL (≈ 3.34 µM)	Cc1cc(-c2ccc3ocnc3c2)nn2c(C(=O)NC(C)C(F)(F)F)cnc12 (stereo not shown)
0.3 µg/mL (≈ 0.732 µM)	Cc1cc(-c2cncc(Cl)c2)nn2c(C(=O)N[C@@H](C3CC3)C(F)(F)F)cnc12
0.4 µg/mL (≈ 1.2 µM)	Cc1cc(C)c2cnc(C(=O)Nc3ccc(-c4cocn4)cc3)n2n1
0.7 µg/mL (≈ 1.71 µM)	Cc1cc(-c2cncc(Cl)c2)nn2c(C(=O)N[C@@H](C3CC3)C(F)(F)F)ncc12 [(S)-2-(5-Chloropyridin-3-yl)-N-(1-cyclopropyl-2,2,2-trifluoroethyl)-4-methylimidazo[1,5-b]pyridazine-7-carboxamide]
0.1 µg/mL (≈ 0.265 µM)	Cc1cc(C#N)c(-c2cc(C)c3ncc(C(=O)N[C@@H](C)C(F)(F)F)n3n2)o1
3 µg/mL (≈ 8.19 µM)	Cc1cc(-c2cccc(F)c2)nn2c(C(=O)NC(C)C(F)(F)F)ncc12 (stereo not shown)
1.4 µg/mL (≈ 3.46 µM)	COc1cccc(-c2cc(C)c3ncc(C(=O)NC(C4CC4)C(F)(F)F)n3n2)c1 (stereo not shown)
0.2 µg/mL (≈ 0.51 µM)	Cc1cc(-c2ccc(F)cc2)nn2c(C(=O)NC(C3CC3)C(F)(F)F)ncc12 (stereo not shown)
1.8 µg/mL (≈ 6.2 µM)	C#Cc1ccc(NC(=O)c2ncc3c(C)cc(C)nn23)cc1
1.3 µg/mL (≈ 3.3 µM)	Cc1cc(-c2cncc(F)c2)nn2c(C(=O)NC(C3CC3)C(F)(F)F)cnc12 (stereo not shown)
0.3 µg/mL (≈ 0.722 µM)	Cc1cc(-c2cccc3ncoc23)nn2c(C(=O)NC(C3CC3)C(F)(F)F)cnc12 (stereo not shown)
0.6 µg/mL (≈ 1.57 µM)	Cc1cc(-c2ccc(F)o2)nn2c(C(=O)NC(C3CC3)C(F)(F)F)cnc12 (stereo not shown)
1.6 µg/mL (≈ 3.85 µM)	Cc1cc(-c2cccc3ocnc23)nn2c(C(=O)NC(C3CC3)C(F)(F)F)cnc12 (stereo not shown)
1 µg/mL (≈ 2.33 µM)	Cc1cc(-c2ccc3ncn(C)c3c2)nn2c(C(=O)N[C@H](C3CC3)C(F)(F)F)cnc12 [(R)—N-(1-Cyclopropyl-2,2,2-trifluoroethyl)-8-methyl-6-(1-methyl-1H-benzo[d]imidazol-6-yl)imidazo[1,2-b]pyridazine-3-carboxamide]
6.5 µg/mL (≈ 19.2 µM)	Cc1cc(-c2ccc(F)cc2)nn2c(C(=O)N[C@@H](C)C3CC3)cnc12
0.2 µg/mL (≈ 0.481 µM)	Cc1cc(-c2ccc3ocnc3c2)nn2c(C(=O)NC(C3CC3)C(F)(F)F)cnc12 (stereo not shown)
29.6 µg/mL (≈ 96 µM)	CCC(NC(=O)c1ncc2c(C)cc(C)nn12)c1ccccc1 (stereo not shown)

solubility	Compound
1.2 µg/mL (≈ 3.08 µM)	Cc1cc(-c2ccc3ocnc3c2)nn2c(C(=O)N[C@@H](C)C(F)(F)F)cnc12
1.9 µg/mL (≈ 4.86 µM)	Cc1cc(-c2ccc(F)cc2C#N)nn2c(C(=O)N[C@H](C)C(F)(F)F)cnc12
3.6 µg/mL (≈ 9.1 µM)	Cc1cc(-c2cc(C)c3ncc(C(=O)N[C@H](C4CC4)C(F)(F)F)n3n2)sn1
0.2 µg/mL (≈ 0.51 µM)	Cc1cc(-c2cccc(F)c2)nn2c(C(=O)N[C@@H](C3CC3)C(F)(F)F)ncc12 [(S)—N-(1-Cyclopropyl-2,2,2-trifluoroethyl)-2-(3-fluorophenyl)-4-methylimidazo[1,5-b]pyridazine-7-carboxamide]
6.9 µg/mL (≈ 20.4 µM)	Cc1cc(-c2ccc(F)cc2)nn2c(C(=O)N[C@@H](C)C3CC3)ncc12
0.1 µg/mL (≈ 0.25 µM)	Cc1cc(-c2ccccc2C#N)nn2c(C(=O)NC(C3CC3)C(F)(F)F)cnc12 (stereo not shown)
4.4 µg/mL (≈ 11.3 µM)	Cc1cc(-c2cccc3ncoc23)nn2c(C(=O)NC(C)C(F)(F)F)cnc12 (stereo not shown)
1.1 µg/mL (≈ 2.81 µM)	Cc1cc(-c2cccc(F)c2C#N)nn2c(C(=O)N[C@@H](C)C(F)(F)F)cnc12 [(S)-6-(2-Cyano-3-fluorophenyl)-8-methyl-N-(1,1,1-trifluoropropan-2-yl)imidazo[1,2-b]pyridazine-3-carboxamide]
1.2 µg/mL (≈ 3.41 µM)	Cc1cc(-c2ccc(F)cc2)nn2c(C(=O)NC(C)(C)C3CC3)ncc12
0.03 µg/mL (≈ 0.0765 µM)	Cc1cc(-c2cccc(F)c2)nn2c(C(=O)NC(C3CC3)C(F)(F)F)cnc12 (stereo not shown)
38.4 µg/mL (≈ 120 µM)	Cc1cc(C)c2cnc(C(=O)NC3CCCc4ccccc43)n2n1 (stereo not shown)
2.2 µg/mL (≈ 5.43 µM)	COc1cccc(-c2cc(C)c3ncc(C(=O)NC(C4CC4)C(F)(F)F)n3n2)n1 (stereo not shown)
1.9 µg/mL (≈ 5.39 µM)	Cc1cc(-c2cccc(F)c2)nn2c(C(=O)NC(C)(C)C3CC3)cnc12
0.9 µg/mL (≈ 2.55 µM)	Cc1cc(-c2ccc(F)cc2)nn2c(C(=O)NC(C)(C)C3CC3)cnc12
1 µg/mL (≈ 2.95 µM)	Cc1cc(-c2ccc(F)cc2)nn2c(C(=O)N[C@@H](C)C3CC3)nnc12
3.2 µg/mL (≈ 8.74 µM)	Cc1cc(-c2ccc(F)cc2)nn2c(C(=O)NC(C)C(F)(F)F)ncc12 (stereo not shown)
0.2 µg/mL (≈ 0.501 µM)	Cc1cc(-c2cccc(C#N)c2)nn2c(C(=O)NC(C3CC3)C(F)(F)F)cnc12 (stereo not shown)
0.5 µg/mL (≈ 1.2 µM)	Cc1cc(-c2ccc3ocnc3c2)nn2c(C(=O)N[C@@H](C3CC3)C(F)(F)F)cnc12
1.9 µg/mL (≈ 5.19 µM)	Cc1cc(-c2cccc(F)c2)nn2c(C(=O)NC(C)C(F)(F)F)cnc12 (stereo not shown)
0.7 µg/mL (≈ 1.86 µM)	C#CC(NC(=O)c1ncc2c(C)cc(-c3cccc(F)c3)nn12)C(F)(F)F (stereo not shown) [2-(3-Fluorophenyl)-4-methyl-N-(1,1,1-trifluorobut-3-yn-2-yl)imidazo[1,5-b]pyridazine-7-carboxamide]
1.2 µg/mL (≈ 2.88 µM)	Cc1cc(-c2ccc(F)cc2C#N)nn2c(C(=O)N[C@@H](C3CC3)C(F)(F)F)cnc12
0.3 µg/mL (≈ 0.732 µM)	Cc1cc(-c2cncc(Cl)c2)nn2c(C(=O)N[C@H](C3CC3)C(F)(F)F)cnc12
0.2 µg/mL (≈ 0.51 µM)	Cc1cc(-c2cccc(F)c2)nn2c(C(=O)N[C@H](C3CC3)C(F)(F)F)ncc12 [(R)—N-(1-Cyclopropyl-2,2,2-trifluoroethyl)-2-(3-fluorophenyl)-4-methylimidazo[1,5-b]pyridazine-7-carboxamide]
1.9 µg/mL (≈ 4.86 µM)	Cc1cc(-c2ccc(F)cc2C#N)nn2c(C(=O)N[C@@H](C)C(F)(F)F)cnc12

— US9868742B2, “Substituted imidazo[1,2-b]pyridazines, substituted imidazo[1,5-b] pyridazines, related compounds, and their use in the treatment of medical disorders” (Lysosomal Therapeutics Inc., priority 2016, dated 2018)
